According to patent US20210308120A1, “Use of Amitriptyline for Blocking Brain Hemichannels and Method for Potentiating its Effect in Vivo” (THERANEXUS, priority 2015, published 2021):

What was measured:
[1] = test system: SN-CCI rats (neuropathic pain, hyperalgesia); assay: Randall & Selitto test in SN-CCI rats, repeated administration every 150 minutes; type: in vivo, rat; conditions: amitriptyline alone i.p. every 150 min; at 90 and 240 min
Method: One week after their arrival, rats were anesthetized with sodium pentobarbital before exposing the common sciatic nerve. As described in Bennett's article, four chromic catgut (5-0) ligations were tied loosely proximally to the sciatic trifurcation (Bennett and Xie, 1988).
All behavioral assessments were conducted between 9 a.m. and 5 p.m. in a quiet room. An increasing pressure was applied to the right hind paw of SN-CCI (Sciatic Nerve-Chronic Constriction Injury) rat to evaluate hyperalgesia-like behavior (Viguier and al, 2013). Values correspond to the pressure threshold producing the paw withdrawal and then the vocalization of the rat.

[2] = Pharmacokinetic of amitriptyline in brain and serum of SN-CCI rats; type: in vivo, rat; conditions: amitriptyline 12 mg/kg osmotic pump ± mefloquine 0.5 mg/kg i.p. bidaily, 14 days
Method: Blood was collected and kept 1 hour at 4° C. Then serum and brain were collected. Amitriptyline was quantified by HPLC and mass spectrometry (Crepta laboratory).
Osmotic mini-pumps (Alzet, model 2ML2), delivering for the following 14 days amitriptyline or vehicle were subcutaneously implanted.
After 14-day treatment, so 28 days after surgery, rats were sacrificed and brain as well as serum samples were collected to quantify amitriptyline.

REM sleep in mice = assay: Quantification of sleep-wake episodes (REM sleep), EEG/EMG; type: in vivo, mouse; conditions: amitriptyline 1 mg/kg i.p., combined or not with mefloquine 1 mg/kg i.p.; vs control
Excerpt: Mice were implanted with cortical and muscle electrodes to record the electroencephalogram (EEG) and electromyogram (EMG) and to monitor the sleep-wake cycle. This implantation allows stable and long-lasting polysomnographic recordings (Parmentier et al, 2002).
Polysomnographic records were visually scored by 10-s epochs for wakefulness (W), slow wave sleep (SWS), and paradoxical or rapid eye movement (REM) sleep.
Mice were registered by electroencephalogram to quantify sleep-wake episodes.

[3] = test system: neuropathic mice (cuff model, allodynia); assay: Mechanical allodynia, von Frey test in sciatic nerve cuff model; type: in vivo, mouse
Method: Paw withdrawal thresholds of mice treated with either amitriptyline 6 mg/kg alone (AMIT 6) or amitriptyline 12 mg/kg alone (AMIT 12) are also shown (D). FIG. 10 (E) represents area under curve analysis.
Area under curve analysis are shown (B).
Neuropathic pain was induced to adult male C57BL/6J mice (Charles River, L'Arbresle, France) by cuffing the main branch of the right sciatic nerve (For detailed description and video illustration: Yalcin et al. 2014, J Vis Exp 89:e51608). Surgeries were performed under ketamine (68 mg/kg)/xylazine (10 mg/kg) intraperitoneal (i.p.) anesthesia (Centravet, Tadden, France). The common branch of the right sciatic nerve was exposed and a cuff of PE-20 polyethylene tubing (Harvard Apparatus, Les Ulis, France) of standardized length (2 mm) was unilaterally inserted around it (Cuff group). The shaved skin was closed using suture.
Injections were done once a day during the 17 first days of treatment, in the afternoon. As a single dose per day was ineffective, treatment was then done twice a day, morning and afternoon, from the 8 last days of treatment.
Mechanical allodynia was tested using von Frey hairs and results were expressed in grams (For detailed description and video illustration: Yalcin et al. 2014, J Vis Exp 89:e51608). Tests were done during the morning, starting at least 2 hours after lights on. Mice were placed in clear Plexiglas boxes (7 cm×9 cm×7 cm) on an elevated mesh screen. Calibrated von Frey filaments (Bioseb, Vitrolles, France) were applied to the plantar surface of each hindpaw until they just bent, in a series of ascending forces up to the mechanical threshold. Filaments were tested five times per paw and the paw withdrawal threshold was defined as the lower of two consecutive filaments for which three or more withdrawals out of the five trials were observed.
Mice were subjected to sciatic nerve cuffing and then tested with the von Frey test to evaluate allodynia quantified as pressure threshold.
Mice were subjected to sciatic nerve cuffing and then tested with the von Frey test to evaluate allodynia quantified as pressure threshold. Neuropathic mice, characterized by a decrease of pressure threshold after surgery, were then treated during 25 days and tested by the von Frey test during this period.

Cx43 hemichannels = molecular target: T1, Cx43 hemichannels (Mus musculus, UniProt P23242); assay: Hemichannel activity by ethidium bromide uptake in LPS-treated mouse cortical astrocyte cultures; type: cell-based; conditions: LPS 1 μg/mL and amitriptyline 5, 10 and 20 μM, 24 hours
T1 construct: Astrocyte cultures were prepared from cortex of rats and mice as previously described; endogenous in cells; host or cells: secondary cultures of mouse cortical astrocytes, LPS-treated
Method: Astrocyte cultures were prepared from cortex of rats and mice as previously described (Meme et al., 2006). Cells were seeded on polyornithine coated 35 mm dishes (5×10^5 cells/dish) or into 100-mm diameter plastic dishes at the density of 3×10^6 cells/dish. After 8-10 days, when cells grown into 35 mm in diameter plastic culture dishes have reached confluence, 1 μM of cytosine-arabinoside was added to the culture medium. In addition, when cells grown into 100 mm plastic culture dishes reached confluence, they were harvested with trypsin-EDTA. Then, cells were re-plated (2×10^5 cells per well), as secondary cultures, on glass coverslips placed inside 24-round-well plate. Finally, they were grown to confluence and cytosine-arabinoside was added. Medium was changed twice a week for all cells until the experiments were carried out. Hemichannel activity was evaluated in secondary cultures of cortical astrocytes by Ethidium Bromide (EtBr) uptake as already published (Orellana et al, 2011). 24 h before experiment, cells were pretreated or not with 1 μg/ml LPS known to open Cx43 HeC. The day of experiment, cells were first preincubated in HEPES buffer solution. Then, cells were exposed to 5 μM EtBr for 10 min at room temperature. Cells were then washed with the same buffer before fixation with 4% paraformaldehyde in PBS. Fixed cells were examined at 40× with a confocal laser-scanning microscope. Stacks of 10 consecutive confocal images taken at 0.49 μm intervals were acquired. For each experimental condition, 6 images were captured and then analyzed with Image J program (NIH software). LPS was added to mouse cortical astrocytic cultures during 24 hours to open Cx43 hemichannels and amitriptyline was also added during the same time to evaluate its action on hemichannel activity, quantified by cell uptake of ethidium bromide.

[4] = rats; cited from earlier work

T1 sequence (P23242 whole entry): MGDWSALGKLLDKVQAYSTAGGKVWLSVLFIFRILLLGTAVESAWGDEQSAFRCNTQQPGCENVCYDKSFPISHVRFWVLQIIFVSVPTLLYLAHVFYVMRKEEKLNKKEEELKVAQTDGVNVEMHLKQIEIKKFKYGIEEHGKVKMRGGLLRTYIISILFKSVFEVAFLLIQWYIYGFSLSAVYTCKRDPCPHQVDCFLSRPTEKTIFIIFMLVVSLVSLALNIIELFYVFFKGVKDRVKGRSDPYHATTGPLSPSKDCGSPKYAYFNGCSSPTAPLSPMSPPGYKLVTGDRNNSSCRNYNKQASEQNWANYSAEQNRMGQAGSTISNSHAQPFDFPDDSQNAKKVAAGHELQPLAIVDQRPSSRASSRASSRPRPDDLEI

- Amitriptyline concentration in brain, with vs without mefloquine [2]: No changes
- Amitriptyline concentration in serum, with vs without mefloquine [2]: No changes
- Amitriptyline ratio brain/plasma, with vs without mefloquine [2]: no significant difference
SMILES: CN(C)CCC=C1c2ccccc2CCc2ccccc21 [amitriptyline, 3-(5,6-dihydrodibenzo[2,1-b:2′,1′-f][7]annulen-11-ylidene)-N,N-dimethylpropan-1-amine]
- Paw withdrawal threshold [1]: did not induce significant effect on its own
- REM sleep duration (REM sleep in mice): did not induce significant reduction on its own
- Paw withdrawal threshold (von Frey) ([3]; amitriptyline 6 mg/kg i.p. chronic, alone): no changes of paw withdrawal
- Paw withdrawal threshold (von Frey) ([3]; amitriptyline 12 mg/kg i.p. chronic, in comparison with amitriptyline 6 mg/kg): significant increase of the paw withdrawal threshold from day 32 to day 34
- Effective equivalent dose of amitriptyline when administered in combination with mefloquine ([3]; relative to active dose of amitriptyline alone): about 0.5
- HC activity (ethidium bromide uptake) after LPS-induced opening (Cx43 hemichannels): reversed this increase at the three tested doses
- Half-life [4]: 2.5 h
